According to PubChem BioAssay AID504936 (NMMLSC, 2011):
The source made the active and inactive calls.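 How the source made its calls: active means cytostatic effect above 60% on a scale from DMSO controls to rapamycin controls, holding yeast in G1/G0 phase; inactive means the rest.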

System: S. cerevisiae BY4741 DNA content flow cytometry, cell cycle
Assay: S. cerevisiae cell cycle DNA content profile – flow cytometry (AID 504936);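 further: yeast exposed to compound for three five or seven days before fixation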
Details: at 10 µM; for G1/G0 population: stronger effect = higher value; for G2 population: measured here: G2 phase fraction, stronger effect = lower value; for apoptotic population: measured here: apoptotic fraction

Structure (SMILES) | G1/G0 population | G2 population | apoptotic population
N#CC(c1nc2ccccc2nc1N1CCCC1)S(=O)(=O)c1ccccc1 (stereo not given) | 75.8% (inactive) | 11.9% | 9.82%
COc1ccc2nc3ccccc3nc2c1NC(=O)c1ccccc1Cl | 79.9% (inactive) | 12.2% | 6.11%
CSc1nnc(-c2ccc([N+](=O)[O-])cc2)o1 | 79.2% (inactive) | 10.8% | 8.39%
CC(C)OC(=O)CSc1nnc(-c2ccc(Cl)cc2Cl)o1 | 79.6% (inactive) | 12.9% | 6.08%
Cc1cc(C)cc(NC(=O)CN2CCN(c3ccccn3)CC2)c1 | 73.5% (inactive) | 12.4% | 12.2%
O=C(O)c1cnc2ccccc2n1 | 78.8% (inactive) | 12.5% | 7.02%
O=C(/C=C/c1cccs1)NC(=S)NNC(=O)Cc1cccs1 | 73% (inactive) | 11.1% | 14%
O=C(/C=C/c1ccccc1)NC(=S)NNC(=O)Cc1cccs1 | 80.1% | 3.91% | 12.7%
Oc1cccc2nc3ccccc3nc12 | 43% (inactive) | 9.27% | 44%
OCC[n+]1c2ccccc2nc2ccc(N3CCOCC3)cc21 | 74.9% (inactive) | 12.4% | 11%
CCn1c2ccccc2c2n[nH]c(=S)nc21 | 80% (inactive) | 11.1% | 6.8%
C=CCOn1c(=O)c(-c2cccs2)[n+]([O-])c2ccccc21 | 73.2% (inactive) | 13.9% | 11.3%
COc1ccc2c(c1)c1nnc(SC)nc1n2C | 58.9% (inactive) | 11.7% | 27.7%
CC(C)(C)Nc1ncnc2c1cnn2-c1ccccc1 | 62.9% (inactive) | 10.3% | 25%
[O-][n+]1c2ccccc2[n+]([O-])c2cc(O)ccc21 | 48.4% (inactive) | 8.17% | 37.1%
Nc1cc2nc3ccccc3nc2cc1N | 79% (inactive) | 9.84% | 9%
O=C1c2c(O)ccc(O)c2C(=O)c2c(NCCNCCO)ccc(NCCNCCO)c21 | 0.072% (inactive) | 0% | 99.9%
CC(C)OC(=O)c1ccc2nc3ccccc3nc2c1 | 78.1% (inactive) | 12.4% | 7.62%
C=CCSc1ccc(-c2ccc([N+](=O)[O-])cc2)o1 | 65.8% (inactive) | 10.1% | 21.7%
C[n+]1c2ccccc2nc2ccc(NCCO)cc21 | 77.6% (inactive) | 7.26% | 8.98%
CC(C)CSc1nnc2c3ccccc3n(C)c2n1 | 75% (inactive) | 12% | 11.2%
Cc1ccc(-c2nn(C(C)(C)C)c3ncnc(N)c23)cc1 | 70.3% (inactive) | 9.27% | 16.3%
CC(C)(C)n1nc(-c2ccc(F)cc2)c2c(N)ncnc21 | 70.5% (inactive) | 3.33% | 14.9%
CCc1nc(NC(C)(C)C)c2cnn(-c3ccccc3)c2n1 | 75.3% (inactive) | 13.1% | 9.99%
O=C(CN1CCN(c2ccccn2)CC1)Nc1ccccc1F | 74% (inactive) | 12.1% | 12%
Cc1cc(C)c2[nH]c3nc(SCC(=O)O)nnc3c2c1 | 79.8% (inactive) | 10.9% | 7.85%
COc1ccc2cc(C3CC(c4ccco4)=NN3S(=O)(=O)c3ccccc3)c(Cl)nc2c1 (stereo not given) | 79% (inactive) | 12.7% | 6.88%
CC(C)(C)n1nc(-c2ccc(Cl)cc2)c2c(N)ncnc21 | 70.8% (inactive) | 0.23% | 12.6%

Structure (SMILES) | G1/G0 population | G2 population | apoptotic population
COc1ccc2nc3ccccc3[n+]([O-])c2c1 | 69.4% (inactive) | 13.5% | 15%
CNc1ccc2nc3ccccc3[n+](C)c2c1 | 52.8% (inactive) | 8.35% | 36.6%
CCN(CC)C(=O)c1ccc2nc3ccccc3nc2c1 | 78.8% (inactive) | 11.3% | 8.05%
N#CCc1nn(-c2ccccc2)c2ncnc(N)c12 | 78.8% (inactive) | 10.6% | 8.22%
c1ccc2[nH]c3cc4ncnc4cc3nc2c1 | 58.6% (inactive) | 8.26% | 30.4%
O=C(OCc1c(F)cccc1Cl)c1cnc2ccccc2n1 | 73.8% (inactive) | 13.8% | 10.5%
c1ccc2nc3ccccc3nc2c1 | 71.8% (inactive) | 13.2% | 12.3%
C#CCSc1ccc(-c2ccc([N+](=O)[O-])cc2)o1 | 79.6% (inactive) | 11% | 8.02%
O=c1[nH]c(O)c(C=Nc2ccc(F)c(Cl)c2)c(=O)[nH]1 | 78.7% (inactive) | 12.7% | 7.01%
Cn1c(=O)[nH]c2nncnc2c1=O | 73.1% (inactive) | 12% | 12.7%
CCC(=Nc1ccccc1O)C1=C(O)CC(c2ccccc2)CC1=O (stereo not given) | 74.7% (inactive) | 12.1% | 12%
CN(C)CCNc1ncnc2c1cnn2-c1ccc(Cl)cc1 | 52.4% (inactive) | 10.3% | 35.5%
Cc1ccccc1NC(=O)c1cccc2nc3ccccc3nc12 | 72.9% (inactive) | 12.2% | 13.2%
O=C(c1cccc2nc3ccccc3nc12)N1CCOCC1 | 76.5% (inactive) | 12.1% | 9.75%
COc1cccc2nc3cc(C)c(C)cc3nc12 | 64.8% (inactive) | 11% | 21.7%
CCN(CC)C(=O)c1cccc2nc3ccccc3nc12 | 42.7% (inactive) | 8.88% | 46.6%
COc1ccc2nc3ccccc3nc2c1N | 56.9% (inactive) | 10.2% | 29.3%
Cn1c(O)c(C(=Nc2ccc(F)cc2)c2ccccc2Cl)c(=O)n(C)c1=O | 72% (inactive) | 14.8% | 11.1%
CCN(CC)C(=O)CSc1nnc(-c2cccc(OC)c2)o1 | 70.5% (inactive) | 12.1% | 15.5%
CC(=O)Nc1ccc2nc3ccccc3nc2c1 | 72.9% (inactive) | 11.9% | 12.6%
COc1ccc2nc3ccccc3nc2c1 | 65.9% (inactive) | 12.7% | 18.8%
O=C(Nc1cccc(Cl)c1)Nc1ccc2nccnc2c1 | 77.4% (inactive) | 12% | 8.93%
O=C(Nc1ccc2nc3ccccc3nc2c1)c1ccc(Br)cc1 | 77.7% (inactive) | 12.5% | 8.37%
CCCCCNC(=O)C(=O)C1C(=O)Nc2ccccc21 (stereo not given) | 71.4% (inactive) | 6.62% | 20%
Cc1cc2nc3ccc(N(C)C)cc3nc2cc1N | 67.3% (inactive) | 5.62% | 20.3%
C[C@@]12C(=O)OC(=O)[C@]1(C)C1CCC2O1 | 61.6% (inactive) | 9.56% | 24.9%
FC(F)(F)c1nc2cc3nc4ccccc4[nH]c3cc2n1 | 71.5% (inactive) | 10.6% | 12.3%
